{"source": "patent US20060083680A1", "about": "“Diphenyl ether derivatives and their use for imaging serotonin transporters” (The Trustees of the University of Pennsylvania, priority 2004, published 2006)", "key": {"SERT binding sites [1]": {"molecular_target": "T1, SERT binding sites (Rattus norvegicus, UniProt P31652)", "T1 construct": "from tissue; host or cells: rat brain in vivo (hypothalamus, cortex, striatum, hippocampus, cerebellum); ex vivo brain sections", "T1 sequence (P31652 whole entry)": "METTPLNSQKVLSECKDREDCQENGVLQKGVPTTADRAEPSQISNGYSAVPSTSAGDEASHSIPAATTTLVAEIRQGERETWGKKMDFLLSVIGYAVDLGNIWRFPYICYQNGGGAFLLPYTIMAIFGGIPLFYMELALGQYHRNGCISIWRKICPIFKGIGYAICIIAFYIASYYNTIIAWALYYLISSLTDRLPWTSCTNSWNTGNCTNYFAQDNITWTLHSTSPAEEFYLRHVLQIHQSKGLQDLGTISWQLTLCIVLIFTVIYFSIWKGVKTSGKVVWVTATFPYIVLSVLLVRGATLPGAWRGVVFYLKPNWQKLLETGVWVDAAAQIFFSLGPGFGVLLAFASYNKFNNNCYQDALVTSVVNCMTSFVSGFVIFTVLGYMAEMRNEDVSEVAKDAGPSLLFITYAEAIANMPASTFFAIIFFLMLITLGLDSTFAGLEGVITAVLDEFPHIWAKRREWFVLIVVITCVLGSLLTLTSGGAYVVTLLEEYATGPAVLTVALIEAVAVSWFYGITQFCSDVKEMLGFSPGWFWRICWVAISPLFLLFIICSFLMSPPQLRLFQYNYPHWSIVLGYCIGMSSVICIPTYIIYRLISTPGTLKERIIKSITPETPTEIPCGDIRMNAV", "test": "In vivo competitive binding / blocking of [^125I]4 regional uptake", "settings": "rats, drug 2 mg/kg i.v. 5 min prior to tracer, 120 min after [^125I]4", "description": "The reduction of regional specific binding in the drug-pretreated rats was compared to the control animals with saline pretreatment."}, "SERT binding sites [2]": {"molecular_target": "T1, SERT binding sites", "test": "Ex vivo autoradiography of rat brain sections", "format": "in vivo, rats", "settings": "rat, 2 mg/Kg 5 min prior to [^125I]4"}, "[3]": {"molecular_target": "T2, NET (norepinephrine transporter) (Homo sapiens, UniProt P23975)", "T2 construct": "membrane homogenates", "T2 sequence (P23975 whole entry)": "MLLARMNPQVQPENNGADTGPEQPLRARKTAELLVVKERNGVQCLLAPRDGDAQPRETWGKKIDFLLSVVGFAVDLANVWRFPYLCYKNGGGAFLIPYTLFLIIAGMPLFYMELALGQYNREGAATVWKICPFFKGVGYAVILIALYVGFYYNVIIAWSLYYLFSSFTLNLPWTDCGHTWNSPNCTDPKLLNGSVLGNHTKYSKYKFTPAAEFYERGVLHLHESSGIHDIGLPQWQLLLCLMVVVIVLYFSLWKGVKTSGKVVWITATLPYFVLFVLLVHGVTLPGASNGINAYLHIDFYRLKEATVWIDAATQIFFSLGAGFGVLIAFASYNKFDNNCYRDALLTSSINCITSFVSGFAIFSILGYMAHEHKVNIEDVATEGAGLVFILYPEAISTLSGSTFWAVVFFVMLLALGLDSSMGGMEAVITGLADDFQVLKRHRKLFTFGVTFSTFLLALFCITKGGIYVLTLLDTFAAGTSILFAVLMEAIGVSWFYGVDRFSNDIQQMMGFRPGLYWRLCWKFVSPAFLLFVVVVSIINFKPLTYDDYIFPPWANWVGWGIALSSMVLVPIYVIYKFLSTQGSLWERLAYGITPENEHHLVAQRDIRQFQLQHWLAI", "test": "In vitro binding assay, membranes of LLC-PK1 cells expressing NET, [^125I]IPT", "procedure": "(§1) Preparation of membrane homogenates: LLC-PK1 cells from pig kidney permanently expressing DAT, NET and SERT, respectively (LLC-DAT, LLC-NET and LLC-SERT) were kindly provided by Dr. G. Rudnick at Yale University. These cells were grown to confluence as a monolayer on 15 cm petri dish as reported previously. […] Cells were then washed once with phosphate buffer saline (w/ Ca^2+ and Mg^2+) (Bio-Whittaker) and harvested with 10 mL PBS by scraping. The cell suspensions were homogenized on ice for 20 strokes and centrifuged at 17,000 rpm for 20 min at 4° C. The pellets were re-suspended in PBS, frozen quickly in liquid N2 and stored in a −70° C. freezer.\n(§2) Binding assays: Binding assays were performed in a final volume of 0.2 mL. […] Incubation was carried out for one h at room temperature and the bound ligand was collected on glass fiber filters (Schleicher & Schuell No. 25, Keene, N.H.) presoaked with 1% polyethylenimine (Sigma, St. Louis, Mo.) and counted in a gamma counter (Packard 5000). Results of competition experiments were subjected to nonlinear regression analysis using EBDA (Elsevier-BIOSOFT, Cambridge, UK)."}, "[4]": {"molecular_target": "T3, DAT (dopamine transporter) (Rattus norvegicus, UniProt P23977)", "T3 construct": "membrane homogenates", "T3 sequence (P23977 whole entry)": "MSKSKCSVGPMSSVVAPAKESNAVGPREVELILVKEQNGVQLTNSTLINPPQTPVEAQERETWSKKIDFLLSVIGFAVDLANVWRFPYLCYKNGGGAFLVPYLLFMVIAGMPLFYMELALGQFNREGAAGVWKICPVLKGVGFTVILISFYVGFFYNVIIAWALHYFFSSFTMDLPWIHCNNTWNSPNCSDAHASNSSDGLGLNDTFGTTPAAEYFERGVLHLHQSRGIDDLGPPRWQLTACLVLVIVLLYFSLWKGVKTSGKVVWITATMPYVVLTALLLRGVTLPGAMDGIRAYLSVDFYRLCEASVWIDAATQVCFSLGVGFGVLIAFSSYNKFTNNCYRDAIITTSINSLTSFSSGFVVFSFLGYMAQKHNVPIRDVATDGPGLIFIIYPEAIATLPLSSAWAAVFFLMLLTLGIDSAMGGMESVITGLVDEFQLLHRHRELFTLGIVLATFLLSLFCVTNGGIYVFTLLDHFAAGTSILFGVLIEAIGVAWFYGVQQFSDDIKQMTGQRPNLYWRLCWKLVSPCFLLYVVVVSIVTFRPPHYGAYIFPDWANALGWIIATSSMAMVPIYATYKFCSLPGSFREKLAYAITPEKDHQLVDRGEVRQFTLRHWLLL", "test": "In vitro binding assay, membranes of LLC-PK1 cells expressing DAT, [^125I]IPT", "procedure": "as §1, §2"}, "[5]": {"molecular_target": "T4, SERT (serotonin transporter) (Rattus norvegicus, UniProt P31652)", "T4 construct": "membrane homogenates", "T4 sequence (P31652 whole entry)": "as the sequence (P31652 whole entry) above", "test": "In vitro binding assay, membranes of LLC-PK1 cells expressing SERT, [^125I]IDAM", "procedure": "as §1, §2"}, "[6]": {"test": "Biodistribution in rats after iv injection (organs)", "format": "in vivo", "procedure": "Biodistribution in rats: Three rats per group were used for each biodistribution study. While under ether anesthesia, 0.2 mL of a saline solution containing 10 μCi of radioactive tracer was injected into the femoral vein. The rats were sacrificed at the time indicated by cardiac excision while under ether anesthesia. Organs of interest were removed and weighed, and the radioactivity was counted. The percent dose per organ was calculated by a comparison of the tissue counts to counts of 1% of the initial dose (100 times diluted aliquots of the injected material) measured at the same time."}, "[7]": {"test": "Partition coefficient 1-octanol/buffer", "format": "physicochemical", "settings": "1-octanol/buffer pH 7.4, 0.1 M phosphate", "procedure": "The test tube was vortexed for 3 min at room temperature, then centrifuged for 5 min. Two weighed samples (2 g each) from the 1-octanol and buffer layers were counted in a well counter. The partition coefficient was determined by calculating the ratio of cpm/g of 1-octanol to that of buffer. Samples from the 1-octanol layer were re-partitioned until consistent partition coefficient values were obtained. The measurement was repeated 3 times."}, "serotonin transporters": {"molecular_target": "T5, serotonin transporters (Rattus norvegicus, UniProt P31652)", "T5 construct": "from tissue; host or cells: rat brain in vivo (hypothalamus, cortex, striatum, hippocampus, cerebellum); ex vivo brain sections", "T5 sequence (P31652 whole entry)": "as above", "test": "Regional brain distribution and specific binding ratio in rats", "format": "in vivo", "procedure": "Regional brain distribution in rats was measured after an i.v. injection of the radioactive tracer. Samples from different brain regions: cortex (frontal plus occipital), striatum, hippocampus, cerebellum and hypothalamus were dissected, weighed and counted. The percentage dose/g of each sample was calculated by comparing sample counts with the counts of the diluted initial dose described above. The specific binding ratio in each region was obtained by dividing the % dose/gram values between region by that in the cerebellum ([region-cerebellum/cerebellum]). The cerebellum region containing little or no serotonin transporters was used as the background region."}, "[8]": {"test": "Stability of the radioactive material"}, "[9]": {"settings": "LLC-PK1 cells expressing SERT, read-out: Ki SERT"}}, "note": "“And” between values parts separate entries of the source, which are not always exact repeats. Identical values can stand only once. “Also recorded” adds a separate entry of the source. Like-named read-outs stand apart in the source and are kept apart here."}
{"molecule": "CSc1ccc([C@@H]2CN3CCC[C@@H]3c3ccccc32)cc1", "note": "[(+)McN5652]", "values": [{"measurement": "effect of pretreatment on specific binding/uptake of [^125I]4 in hypothalamus", "setting": "SERT binding sites [1]", "value": "completely eliminated the specific binding; also recorded: significantly blocked"}, {"measurement": "effect of pretreatment on specific uptake of [^125I]4 in brain regions (autoradiography)", "setting": "SERT binding sites [2]", "value": "totally eliminated"}]}
{"molecule": "CN(C)Cc1ccccc1Sc1ccc(I)cc1CO", "note": "[Compound 1, reference compound]", "values": [{"measurement": "Ki", "setting": "[3]", "value": "234 ± 26", "unit": "nM"}, {"measurement": "Ki", "setting": "[4]", "value": "> 1000", "unit": "nM"}, {"measurement": "Ki", "setting": "[5]; [9]", "value": "0.097 ± 0.013", "unit": "nM"}]}
{"molecule": "CN(C)Cc1ccccc1Oc1ccc(I)cc1CO", "note": "[Compound 2, reference compound]", "values": [{"measurement": "Ki", "setting": "[3]", "value": "20 ± 2", "unit": "nM"}, {"measurement": "Ki", "setting": "[4]", "value": "> 1000", "unit": "nM"}]}
{"molecule": "CN(C)Cc1ccccc1Oc1ccc(I)cc1N", "note": "[Compound 4, 2-(2-(Dimethylaminomethyl)phenoxy)-5-iodophenylamine]", "values": [{"measurement": "Ki", "setting": "[3]", "value": "286 ± 36", "unit": "nM"}, {"measurement": "Ki", "setting": "[4]", "value": "309 ± 65", "unit": "nM"}, {"measurement": "increase in brain uptake vs ADAM (3)", "setting": "[6]; 2 and 4 h after i.v. injection", "value": "two to three-fold increase"}, {"measurement": "brain uptake", "setting": "[6]; 2 h after i.v. injection", "value": 1.08, "unit": "% dose/brain"}, {"measurement": "brain uptake", "setting": "[6]; 4 h after i.v. injection", "value": 0.33, "unit": "% dose/brain"}, {"measurement": "Ki", "setting": "[5]", "value": "0.37 ± 0.11", "unit": "nM"}, {"measurement": "selectivity for SERT over NET and DAT", "setting": "[5]", "value": "more than 500 fold"}, {"measurement": "Partition coefficient", "setting": "[7]", "value": 418}, {"measurement": "hypothalamus uptake compared to other radioiodinated compounds", "setting": "serotonin transporters; 60-240 min post i.v. injection", "value": "highest hypothalamus uptake among all of the radioiodinated compounds"}, {"measurement": "higher uptake in hypothalamus than ADAM (3)", "setting": "serotonin transporters; between 2 and 4 h", "value": "more than 200%"}, {"measurement": "Regional brain distribution HY (hypothalamus)", "setting": "serotonin transporters; iv, 120 min", "value": 0.92, "unit": "% dose/g"}, {"measurement": "Regional brain distribution HY (hypothalamus)", "setting": "serotonin transporters; iv, 240 min", "value": 0.32, "unit": "% dose/g"}]}
{"molecule": "CN(C)Cc1ccccc1Cc1ccc(I)cc1N", "note": "[Compound 5, 2-(2-(dimethylaminomethyl)benzyl)-5-iodophenylamine]", "values": [{"measurement": "Ki", "setting": "[3]", "value": "17 ± 4", "unit": "nM"}, {"measurement": "Ki", "setting": "[4]", "value": "> 1000", "unit": "nM"}, {"measurement": "Ki", "setting": "[5]; [9]", "value": "48.6 ± 4.1", "unit": "nM"}]}
{"molecule": "CN(C)Cc1ccccc1Sc1ccc(C#N)cc1N", "note": "[DASB, reference compound]", "values": [{"measurement": "Ki", "setting": "[4]", "value": "> 1000", "unit": "nM"}, {"measurement": "Ki", "setting": "[5]; [9]", "value": "1.1 ± 0.04", "unit": "nM"}]}
{"molecule": "CN(C)Cc1ccccc1Oc1ccc([125I])cc1N", "note": "[[^123I]4, [^125I][^123I]2-(2-(Dimethylaminomethyl)phenoxy)-5-iodophenylamine]", "values": [{"measurement": "stability after labeling", "setting": "[8]; after labeling", "value": 24, "unit": "h"}]}
{"molecule": "CN(C)Cc1ccccc1Cc1ccc([125I])cc1N", "note": "[[^125I]5, 2-(2-(Dimethylaminomethyl)benzyl)-5-[^125I]iodophenylamine]", "values": [{"measurement": "stability in a refrigerator", "setting": "[8]; refrigerator", "value": "stable in a refrigerator at least for three weeks"}, {"measurement": "brain uptake", "setting": "[6]; 2 min post-injection", "value": "1.77 % dose and 1.77±0.049 % dose"}, {"measurement": "Partition coefficient", "setting": "[7]", "value": "1,730"}, {"measurement": "Ratio of (Region-Cerebellum)/Cerebellum, HY", "setting": "serotonin transporters; iv, 120 min", "value": 2.43}]}
{"molecule": "CN(C)Cc1ccccc1Sc1ccc([125I])cc1N", "note": "[[^125I]ADAM (3), reference compound]", "values": [{"measurement": "Partition coefficient", "setting": "[7]", "value": 335}]}
{"molecule": "O=C(c1ccc(F)cc1)C1CCN(CCn2c(=O)[nH]c3ccccc3c2=O)CC1", "note": "[ketanserin]", "values": [{"measurement": "effect of pretreatment on specific binding/uptake of [^125I]4 in hypothalamus", "setting": "SERT binding sites [1]", "value": "did not show any significant effect"}]}
{"molecule": "COC(=O)C(c1ccccc1)C1CCCCN1", "note": "(stereo not drawn) [methylphenidate]", "values": [{"measurement": "effect of pretreatment on specific binding/uptake of [^125I]4 in hypothalamus", "setting": "SERT binding sites [1]", "value": "did not show any significant effect"}]}
{"molecule": "CCN1CCC[C@H]1CNC(=O)c1c(O)c(Cl)cc(Cl)c1OC", "note": "[raclopride]", "values": [{"measurement": "effect of pretreatment on specific binding/uptake of [^125I]4 in hypothalamus", "setting": "SERT binding sites [1]", "value": "did not show any significant effect"}]}
